The values that follow are results of earlier work, collected in patent US10647727B2, “Substituted pyrazolo/imidazolo bicyclic compounds as PDE2 inhibitors” (Merck Sharp & Dohme Corp., priority 2015, dated 2020).

For this series the following is noted: reported in Brandon et al. 2007; cited from earlier work.

In the case of `COc1ccc(Cc2nn3c([C@@H](CCCc4ccccc4)[C@@H](C)O)nc(C)c3c(=O)[nH]2)cc1OC` [Bay 60-7550], the brain penetration entry is “limited”.
